{"source": "patent US20250312504A1", "about": "“VOLATILE COMPOSITION […] FOR COMPOSITIONS COMPRISING A META-(C1-C4 ALKOXY) […]” (The Procter & Gamble Company, priority 2024, published 2025)", "type_in_all_cases": "physicochemical", "key": {"[1]": {"assay": "Electronic air freshener device test of DPM solutions (crystallization, weight loss)", "conditions": "for crystal formation in air freshener device over time: 2, 5 and 10 wt. % solutions in DPM, plugged-in device, inspected daily for 4 weeks", "description": "Each solution (24 mL) was added to a P&G electronic air freshener device and plugged in to a standard 120v outlet. The devices were inspected and weighed daily for 4 weeks. The mass of each device was no longer recorded after the device stopped losing weight.\nFIGS. 3-5 show the % weight loss of each solution in the P&G electronic air freshener device."}, "[2]": {"assay": "Headspace Method, air/solvent partition out of dipropylene glycol methyl ether (DPM)", "conditions": "relative to ethylvanillin", "description": "(§1) Perfume headspace data is collected for various materials according to the method provided below.\n(§2) The partition coefficients are calculated by determining the amount of PRM in the headspace above a solution with a known concentration using a GC/FID-MS (Agilent 7890 and 5977A MSD) with a thermal desorption unit (Gerstel MPS2) and Dynamic Headspace Sampler (Gerstel DHS). This technique allows for automated headspace collections using the MultiPurposeSampler (MPS). The PRMs of interest are prepared at a known concentration in isopropyl myristate (IPM) or dipropylene glycol methyl ether (DPM), and 1 mL is pipetted in a 20 mL headspace vial. […]\n(§3) Analytical standards can be obtained from Sigma Aldrich, St. Louis, MO and BioSynth, UK. A stock solution is prepared at approximately 0.5 g/L. The stock solution is then diluted to 4 to 5 concentrations ranging from approximately 0.05 g/L to 0.00005 g/L. These standard solutions are then analyzed by GC/MS. […]\n(§4) Quantification of the headspace is performed by the PRM target m/z area response of the perfume component and the linear equation of the calibration plot.\n(§5) Perfume headspace data is collected for various materials according to the Headspace Method provided above in the Test Methods section. The Air/Solvent partition coefficients are determined and indexed accordingly (e.g., where the partition coefficient for ethylvanillin is set at 1.00)."}, "[3]": {"assay": "Headspace Method, air/solvent partition out of isopropyl myristate (IPM)", "conditions": "relative to ethylvanillin", "description": "as §1, §2, §3, §4, §5"}}, "data": [{"smiles": "CCOc1cccc(C=O)c1O", "note": "[ortho-Ethylvanillin, 2-hydroxy-3-ethoxybenzaldehyde]", "values": [{"measurement": "weight loss rate of solution in air freshener device", "setting": "[1]; 2, 5 and 10 wt. % in DPM, most noticeable in the 5% and 10% solutions", "value": "steeper weight loss rate than the EV and V solutions"}, {"measurement": "crystal formation in air freshener device over time", "setting": "[1]", "value": "no crystals formed"}, {"measurement": "goes into the headspace more than ethylvanillin out of DPM", "setting": "[2]", "value": "about 94 ×"}, {"measurement": "goes into the headspace more than ethylvanillin out of IPM", "setting": "[3]", "value": "about 6.2 ×"}]}, {"smiles": "CCOc1cc(C=O)ccc1O", "note": "[Ethylvanillin, reference compound]", "values": [{"measurement": "crystal formation in air freshener device over time", "setting": "[1]", "value": "crystals were seen to form"}]}, {"smiles": "COc1cc(C=O)ccc1O", "note": "[Vanillin, reference compound]", "values": [{"measurement": "crystal formation in air freshener device over time", "setting": "[1]", "value": "crystals were seen to form"}]}]}
